The values below come from patent US8183262B2, “Pyridine derivatives as mGluR2 antagonists” (Hoffmann-La Roche Inc., priority 2007, dated 2012).

As a reminder, the melting point is the temperature of the solid-liquid transition.

As to `Cc1cc(-c2ccc(C(F)(F)F)cc2)cc(-c2ccnc(-c3cccc(S(=O)(=O)NC(C)(C)CO)c3)c2)n1` [Example 349, N-(2-Hydroxy-1,1-dimethyl-ethyl)-3-[6-methyl-4-(4-trifluoromethyl-phenyl)-[2,4′]bipyridinyl-2′-yl]-benzenesulfonamide], the melting point came to 92 °C.
The same measure for `Cc1cc(-c2ccc(C(F)(F)F)cc2)cc(-c2cccc(-c3cccc(NS(=O)(=O)N4CCOCC4)c3)n2)n1` [Example 351, Morpholine-4-sulfonic acid {3-[6′-methyl-4′-(4-trifluoromethyl-phenyl)-[2,2′]bipyridinyl-6-yl]-phenyl}-amide]: 191 °C; for `Cc1cc(-c2ccc(C(F)(F)F)cc2)cc(-c2cccc(-c3ccnc(N)c3)n2)n1` [Example 358, 6-Methyl-4-(4-trifluoromethyl-phenyl)-[2,2′;6′,4″]terpyridin-2″-ylamine]: 160 °C.
To `Cc1cc(-c2ccc(C(F)(F)F)cc2)cc(-c2cccc(-c3cccc(S(=O)(=O)NCCO)c3)n2)n1` [Example 359, N-(2-Hydroxy-ethyl)-3-[6′-methyl-4′-(4-trifluoromethyl-phenyl)-[2,2′]bipyridinyl-6-yl]-benzenesulfonamide] belongs 110 °C (dec.); to `Cc1cc(-c2ccc(C(F)(F)F)cc2)nc(-c2ccnc(-c3cccc(N)c3)c2)c1` [Example 361, 3-[4-Methyl-6-(4-trifluoromethyl-phenyl)-[2,4]bipyridinyl-2′-yl]-phenylamine], 87 °C (dec.); to `CC(C)(C)NS(=O)(=O)c1cccc(-c2cccc(-c3nc(-c4ccc(C(F)(F)F)cc4)cc(C(F)(F)F)n3)n2)c1` [Example 362, N-tert-Butyl-3-{6-[4-trifluoromethyl-6-(4-trifluoromethyl-phenyl)-pyrimidin-2-yl]-pyridin-2-yl}-benzenesulfonamide], 75 °C.
To `Cc1cc(-c2ccc(C(F)(F)F)cc2)cc(-c2cccc(-c3cccc(S(=O)(=O)NC(C)(C)CO)c3)n2)n1` [Example 363, N-(2-Hydroxy-1,1-dimethyl-ethyl)-3-[6′-methyl-4′-(4-trifluoromethyl-phenyl)-[2,2′]bipyridinyl-6-yl]-benzenesulfonamide] belongs 171 °C; to `NS(=O)(=O)c1cccc(-c2cccc(-c3nc(-c4ccc(C(F)(F)F)cc4)cc(C(F)(F)F)n3)n2)c1` [Example 364, 3-{6-[4-Trifluoromethyl-6-(4-trifluoromethyl-phenyl)-pyrimidin-2-yl]-pyridin-2-yl}-benzenesulfonamide], 244 °C (dec.); to `Cc1cc(-c2ccc(C(F)(F)F)cc2)cc(-c2cccc(-c3cccc(S(=O)(=O)N4CCS(=O)(=O)CC4)c3)n2)n1` [Example 368, 6′-[3-(1,1-Dioxo-1λ6-thiomorpholine-4-sulfonyl)-phenyl]-6-methyl-4-(4-trifluoromethyl-phenyl)-[2,2′]bipyridinyl], 230 °C (dec.).
The compound `Cc1cc(-c2ccc(C(F)(F)F)cc2)cc(-c2cccc(-c3cccc(S(=O)(=O)N4CCCC4)c3)n2)n1` [Example 369, 6-Methyl-6′-[3-(pyrrolidine-1-sulfonyl)-phenyl]-4-(4-trifluoromethyl-phenyl)-[2,2′]bipyridinyl] returned a melting point of 174 °C.
To `Cc1cc(-c2ccc(C(F)(F)F)cc2)cc(-c2cccc(-c3cccc(S(=O)(=O)N4CCN(C)CC4)c3)n2)n1` [Example 370, 6-Methyl-6′-[3-(4-methyl-piperazine-1-sulfonyl)-phenyl]-4-(4-trifluoromethyl-phenyl)-[2,2′]bipyridinyl] belongs 167 °C (dec.); to `COCCNS(=O)(=O)c1cccc(-c2cccc(-c3cc(-c4ccc(C(F)(F)F)cc4)cc(C)n3)n2)c1` [Example 371, N-(2-Methoxy-ethyl)-3-[6′-methyl-4′-(4-trifluoromethyl-phenyl)-[2,2′]bipyridinyl-6-yl]-benzenesulfonamide], 126 °C; to `Cc1cc(-c2ccc(C(F)(F)F)cc2)cc(-c2cccc(-c3cccc(S(=O)(=O)NCCOCCO)c3)n2)n1` [Example 372, N-[2-(2-Hydroxy-ethoxy)-ethyl]-3-[6′-methyl-4′-(4-trifluoromethyl-phenyl)-[2,2′]bipyridinyl-6-yl]-benzenesulfonamide], 123 °C.
To `Cc1cc(-c2ccc(C(F)(F)F)cc2)cc(-c2cccc(-c3cccc(S(=O)(=O)N4CCOCC4)c3)n2)n1` [Example 373, 6-Methyl-6′-[3-(morpholine-4-sulfonyl)-phenyl]-4-(4-trifluoromethyl-phenyl)-[2,2′]bipyridinyl] belongs 216 °C.
The same measure for `CCC(=O)NS(=O)(=O)c1cccc(-c2cc(-c3nc(-c4ccc(C(F)(F)F)cc4)cc(C(F)(F)F)n3)ccn2)c1` [Example 374, N-Propionyl-3-{4-[4-trifluoromethyl-6-(4-trifluoromethyl-phenyl)-pyrimidin-2-yl]-pyridin-2-yl}-benzenesulfonamide]: 144 °C; for `CCC(=O)NS(=O)(=O)c1ccc(-c2cc(-c3nc(-c4ccc(C(F)(F)F)cc4)cc(C(F)(F)F)n3)ccn2)s1` [Example 375, 5-{4-[4-Trifluoromethyl-6-(4-trifluoromethyl-phenyl)-pyrimidin-2-yl]-pyridin-2-yl}-thiophene-2-sulfonic acid propionyl-amide]: 257 °C; for `Cc1cc(-c2ccc(Cl)c(C)c2)nc(-c2cccc(-c3ccc(N)nc3)c2)n1` [Example 376, 5-{3-[4-(4-Chloro-3-methyl-phenyl)-6-methyl-pyrimidin-2-yl]-phenyl}-pyridin-2-ylamine]: 158 °C (dec.).
`Nc1ccc(-c2cn(-c3nc(-c4ccc(F)cc4)cc(C(F)(F)F)n3)cn2)cn1` [Example 378, 5-{1-[4-(4-Fluoro-phenyl)-6-trifluoromethyl-pyrimidin-2-yl]-1H-imidazol-4-yl}-pyridin-2-ylamine] registered a melting point of 249.5 °C.
To `Cc1cc(-c2ccc(Cl)c(C)c2)nc(-c2cccc(-c3cccc(S(N)(=O)=O)c3)c2)n1` [Example 379, 3′-[4-(4-Chloro-3-methyl-phenyl)-6-methyl-pyrimidin-2-yl]-biphenyl-3-sulfonic acid amide] belongs 201 °C; to `Cc1cc(-c2ccc(Cl)c(C)c2)nc(-c2cccc(-c3ccc(S(N)(=O)=O)s3)c2)n1` [Example 380, 5-{3-[4-(4-Chloro-3-methyl-phenyl)-6-methyl-pyrimidin-2-yl]-phenyl}-thiophene-2-sulfonic acid amide], 240 °C.
Compound `O=S(=O)(NCCO)c1cccc(-c2cc(-c3nc(-c4ccc(C(F)(F)F)cc4)cc(C(F)(F)F)n3)ccn2)c1` [Example 381, N-(2-Hydroxy-ethyl)-3-{4-[4-trifluoromethyl-6-(4-trifluoromethyl-phenyl)-pyrimidin-2-yl]-pyridin-2-yl}-benzenesulfonamide] showed a melting point of 192.5 °C.
The same measure for `CC(C)(CO)NS(=O)(=O)c1cccc(-c2cc(-c3nc(-c4ccc(C(F)(F)F)cc4)cc(C(F)(F)F)n3)ccn2)c1` [Example 382, N-(2-Hydroxy-1,1-dimethyl-ethyl)-3-{4-[4-trifluoromethyl-6-(4-trifluoromethyl-phenyl)-pyrimidin-2-yl]-pyridin-2-yl}-benzenesulfonamide]: 221 °C; for `O=S(=O)(c1cccc(-c2cc(-c3nc(-c4ccc(C(F)(F)F)cc4)cc(C(F)(F)F)n3)ccn2)c1)N(CCO)CCO` [Example 383, N,N-Bis-(2-hydroxy-ethyl)-3-{4-[4-trifluoromethyl-6-(4-trifluoromethyl-phenyl)-pyrimidin-2-yl]-pyridin-2-yl}-benzenesulfonamide]: 186 °C.
To `NS(=O)(=O)c1ccc(-c2cn(-c3nc(-c4ccc(F)c(F)c4)cc(C(F)(F)F)n3)cn2)s1` [Example 385, 5-{1-[4-(3,4-Difluoro-phenyl)-6-trifluoromethyl-pyrimidin-2-yl]-1H-imidazol-4-yl}-thiophene-2-sulfonic acid amide] belongs 228 °C; to `NS(=O)(=O)c1ccc(-c2cn(-c3nc(-c4ccc(F)cc4)cc(C(F)(F)F)n3)cn2)s1` [Example 386, 5-{1-[4-(4-Fluoro-phenyl)-6-trifluoromethyl-pyrimidin-2-yl]-1H-imidazol-4-yl}-thiophene-2-sulfonic acid amide], 244.5 °C.
The same measure for `NS(=O)(=O)c1cccc(-c2cn(-c3nc(-c4ccc(F)cc4)cc(C(F)(F)F)n3)cn2)c1` [Example 387, 3-{1-[4-(4-Fluoro-phenyl)-6-trifluoromethyl-pyrimidin-2-yl]-1H-imidazol-4-yl}-benzenesulfonamide]: 260 °C.
`NS(=O)(=O)c1ccc(-c2cccc(-c3nc(-c4ccc(F)c(F)c4)cc(C(F)(F)F)n3)c2)s1` [Example 388, 5-{3-[4-(3,4-Difluoro-phenyl)-6-trifluoromethyl-pyrimidin-2-yl]-phenyl}-thiophene-2-sulfonic acid amide]: the melting point stood at 238 °C.
In turn, `O=S(=O)(NCCO)c1cccc(-c2cccc(-c3nc(-c4ccc(C(F)(F)F)cc4)cc(C(F)(F)F)n3)c2)c1` [Example 391, 3′-[4-Trifluoromethyl-6-(4-trifluoromethyl-phenyl)-pyrimidin-2-yl]-biphenyl-3-sulfonic acid (2-hydroxy-ethyl)-amide] had a melting point of 153 °C.
The compound `O=S(=O)(c1cccc(-c2cccc(-c3nc(-c4ccc(C(F)(F)F)cc4)cc(C(F)(F)F)n3)c2)c1)N(CCO)CCO` [Example 392, 3′-[4-Trifluoromethyl-6-(4-trifluoromethyl-phenyl)-pyrimidin-2-yl]-biphenyl-3-sulfonic acid bis-(2-hydroxy-ethyl)-amide] yielded a melting point of 111.5 °C.
For the compound `NS(=O)(=O)c1cccc(-c2cccc(-c3nc(-c4ccc(F)c(F)c4)cc(C(F)(F)F)n3)c2)c1` [Example 393, 3′-[4-(3,4-Difluoro-phenyl)-6-trifluoromethyl-pyrimidin-2-yl]-biphenyl-3-sulfonic acid amide], the melting point was 211 °C.
The same measure for `NS(=O)(=O)c1ccc(-c2cccc(-c3nc(-c4ccc(F)cc4)cc(C(F)(F)F)n3)c2)s1` [Example 395, 5-{3-[4-(4-Fluoro-phenyl)-6-trifluoromethyl-pyrimidin-2-yl]-phenyl}-thiophene-2-sulfonic acid amide]: 228.5 °C.
